Experimental data reported in patent US9980943B2, “Methods of treating muscular dystrophy” (BOARD OF REGENTS OF THE NEVADA SYSTEM OF HIGHER EDUCATION, …, priority 2013, dated 2018).

How the values were obtained:
Type in all cases: cell-based, mouse
[1] = test system: α7 integrin (LacZ reporter in α7βgal+/− myoblasts); assay: Myoblast α7+/LacZ integrin FDG assay (Burkin assay in myoblasts, 96-well); details: α7+/LacZ myoblasts, 96-well
[2] = test system: α7 integrin (LacZ reporter in α7+/LacZ myotubes); assay: Myotube α7 integrin FDG assay (Burkin assay in myotubes, 96-well); details: myotubes
[3] = test system: β-galactosidase in CMV-LacZ C2C12 myotubes; assay: CMV-LacZ secondary screen in C2C12 myotubes (β-Gal stabilizing assay); details: for CMV-LACZ in Myotubes (β-galactosidase activity relative to DMSO): CMV-LacZ C2C12 myotubes, 96-well format
In short: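 A secondary screen identifies compounds that stabilize β-gal independently of the native promoter, using CMV-LacZ C2C12 cells. Curves span 0.5–40 μM at six levels, in duplicate.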

Cc1c(C(=O)N2CCCCC2)c(S(=O)(=O)Nc2cccc(Br)c2)c(C)n1C [MLS001096269-01]
fold induction at 0.5 µM ([1]; Mus musculus, Myoblast, 48 h, 0.5 uM, read-out: Burkin Assay in Myoblasts, value relative to DMSO): 1.04
fold induction at 1 µM ([1]; Mus musculus, Myoblast, 48 h, 1 uM, read-out: Burkin Assay in Myoblasts, value relative to DMSO): 1.01
fold induction at 5 µM ([1]; Mus musculus, Myoblast, 48 h, 5 uM, read-out: Burkin Assay in Myoblasts, value relative to DMSO): 0.941
fold induction at 10 µM ([1]; Mus musculus, Myoblast, 48 h, 10 uM, read-out: Burkin Assay in Myoblasts, value relative to DMSO): 1.03
fold induction at 20 µM ([1]; Mus musculus, Myoblast, 48 h, 20 uM, read-out: Burkin Assay in Myoblasts, value relative to DMSO): 1.05
fold induction at 40 µM ([1]; Mus musculus, Myoblast, 48 h, 40 uM, read-out: Burkin Assay in Myoblasts, value relative to DMSO): 1.2
fold induction at 0.5 µM ([2]; Mus musculus, Myotube, 0.5 uM, read-out: Burkin Assay in Myotubes (signal relative to DMSO)): 0.999
fold induction at 1 µM ([2]; Mus musculus, Myotube, 1 uM, read-out: Burkin Assay in Myotubes (signal relative to DMSO)): 1.09
fold induction at 5 µM ([2]; Mus musculus, Myotube, 5 uM, read-out: Burkin Assay in Myotubes (signal relative to DMSO)): 1.31
fold induction at 10 µM ([2]; Mus musculus, Myotube, 10 uM, read-out: Burkin Assay in Myotubes (signal relative to DMSO)): 1.12
fold induction at 20 µM ([2]; Mus musculus, Myotube, 20 uM, read-out: Burkin Assay in Myotubes (signal relative to DMSO)): 1.13
fold induction at 40 µM ([2]; Mus musculus, Myotube, 40 uM, read-out: Burkin Assay in Myotubes (signal relative to DMSO)): 0.912
fold induction at 5 µM ([3]; Mus musculus, C2C12, read-out: CMV-LACZ in Myotubes, signal relative to DMSO, 5 uM, C2C12 CMV-LacZ myotubes, fold relative to DMSO): 1.09
fold induction at 10 µM ([3]; Mus musculus, C2C12, read-out: CMV-LACZ in Myotubes, signal relative to DMSO, 10 uM, C2C12 CMV-LacZ myotubes, fold relative to DMSO): 0.74
fold induction at 20 µM ([3]; Mus musculus, C2C12, read-out: CMV-LACZ in Myotubes, signal relative to DMSO, 20 uM, C2C12 CMV-LacZ myotubes, fold relative to DMSO): 0.986
fold induction at 40 µM ([3]; Mus musculus, C2C12, read-out: CMV-LACZ in Myotubes, signal relative to DMSO, 40 uM, C2C12 CMV-LacZ myotubes, fold relative to DMSO): 0.775

COCc1c(C(=O)OCc2nc3ccsc3c(=O)[nH]2)oc2ccccc12 [MLS002163386-01]
Burkin Assay in Myoblasts, value relative to DMSO ([1]; 0.5 uM): 1.0508
Burkin Assay in Myoblasts, value relative to DMSO ([1]; 1 uM): 0.9023
Burkin Assay in Myoblasts, value relative to DMSO ([1]; 5 uM): 1.034
Burkin Assay in Myoblasts, value relative to DMSO ([1]; 10 uM): 0.888
Burkin Assay in Myoblasts, value relative to DMSO ([1]; 20 uM): 1.014
Burkin Assay in Myoblasts, value relative to DMSO ([1]; 40 uM): 0.9388
Burkin Assay in Myotubes (signal relative to DMSO) ([2]; 0.5 uM): 1.104
Burkin Assay in Myotubes (signal relative to DMSO) ([2]; 1 uM): 1.048
Burkin Assay in Myotubes (signal relative to DMSO) ([2]; 5 uM): 1.112
Burkin Assay in Myotubes (signal relative to DMSO) ([2]; 10 uM): 1.064
Burkin Assay in Myotubes (signal relative to DMSO) ([2]; 20 uM): 1.064
Burkin Assay in Myotubes (signal relative to DMSO) ([2]; 40 uM): 1.02
CMV-LACZ in Myotubes (β-galactosidase activity relative to DMSO) ([3]; 5 uM): 0.9749
CMV-LACZ in Myotubes (β-galactosidase activity relative to DMSO) ([3]; 10 uM): 1.196
CMV-LACZ in Myotubes (β-galactosidase activity relative to DMSO) ([3]; 20 uM): 0.9465
CMV-LACZ in Myotubes (β-galactosidase activity relative to DMSO) ([3]; 40 uM): 1.066

O=[N+]([O-])c1ccc(N2CCN(c3ccccc3F)CC2)nc1 [MLS001165749-01]
Burkin Assay in Myoblasts, signal relative to DMSO ([1]; 0.5 uM): 1.048
Burkin Assay in Myoblasts, signal relative to DMSO ([1]; 1 uM): 1.057
Burkin Assay in Myoblasts, signal relative to DMSO ([1]; 5 uM): 1.034
Burkin Assay in Myoblasts, signal relative to DMSO ([1]; 10 uM): 0.9342
Burkin Assay in Myoblasts, signal relative to DMSO ([1]; 20 uM): 0.9628
Burkin Assay in Myoblasts, signal relative to DMSO ([1]; 40 uM): 0.7711
Burkin Assay in Myotubes, α7 integrin LacZ reporter signal relative to DMSO ([2]; 0.5 uM): 0.9532
Burkin Assay in Myotubes, α7 integrin LacZ reporter signal relative to DMSO ([2]; 1 uM): 1.078
Burkin Assay in Myotubes, α7 integrin LacZ reporter signal relative to DMSO ([2]; 5 uM): 1.1624
Burkin Assay in Myotubes, α7 integrin LacZ reporter signal relative to DMSO ([2]; 10 uM): 1.122
Burkin Assay in Myotubes, α7 integrin LacZ reporter signal relative to DMSO ([2]; 20 uM): 0.7808
Burkin Assay in Myotubes, α7 integrin LacZ reporter signal relative to DMSO ([2]; 40 uM): 0.7342
CMV-LACZ in Myotubes, signal relative to DMSO ([3]; 5 uM, C2C12 CMV-LacZ myotubes, fold relative to DMSO): 0.8271
CMV-LACZ in Myotubes, signal relative to DMSO ([3]; 10 uM, C2C12 CMV-LacZ myotubes, fold relative to DMSO): 0.9284
CMV-LACZ in Myotubes, signal relative to DMSO ([3]; 20 uM, C2C12 CMV-LacZ myotubes, fold relative to DMSO): 1.024
CMV-LACZ in Myotubes, signal relative to DMSO ([3]; 40 uM, C2C12 CMV-LacZ myotubes, fold relative to DMSO): 1.038
